Laboratory results reported in patent US20250034200A1, “Prodrugs of Neurosteroid Analogs and Uses Thereof” (priority 2021, published 2025).
Where a name gives a salt, the structure may show the parent alone. Read-outs that look alike come from different tables or passages of the source.

Experiments:
[1] = Aqueous stability assay (HPLC, pseudo first-order half-life); assay type: physicochemical; details: DPBS pH 7.0-7.3, 1 mg/mL, room temperature
Description: Aqueous stability experiments were performed on an Agilent 1100 HPLC equipped with an Agilent 1200 autosampler. HPLC grade solvents were exclusively used during analysis, with acetonitrile being purchased from Sigma Aldrich, and water and formic acid provided by Fisher Scientific. […]
[…] All mixtures were then sonicated for 5 min or stirred until complete dissolution was achieved. Any precipitate observed in sample solutions was filtered with a PTFE syringe filter prior to analysis. Immediately after sample preparation, injection by the HPLC autosampler was performed, which was recorded as the initial time point (t=0 min). Samples were then kept in the autosampler at room temperature and injected at designated intervals without additional filtration or sample modification. Next, the area of the parent peak in each chromatogram was determined by automated integration in the Agilent ChemStation software. Pseudo first-order half-lives were then ascertained by calculating the percent of the parent compound remaining after each time point. Plots of time (x-axis) vs. the natural logarithm of percent parent remaining (y-axis) were subsequently constructed to determine the slope. Finally, the aqueous stability was evaluated using the following equation:
The HPLC conditions were as follows: injection volume, 1 μL; column temperature: 40° C.; detector: 254 nm; stationary phase: Zorbax Eclipse XDB-C18 (4.6×150 mm, 5 μm); flow rate: 1 mL/min; mobile phase: 80-95% acetonitrile in H2O (0.1% formic acid).

[2] = Plasma stability assay (LC-MS/MS); assay type: in vitro ADME; details: human plasma, 37° C., 3 μM
Description: Procaine and procainamide were purchased from Sigma Aldrich. HPLC-grade acetonitrile, water, methanol, and formic acid were purchased from Fisher Scientific. Human plasma (Cat. No. […]2N) was obtained from BIOIVT, and PBS (1×Dulbecco's, pH 7.4) from Thermo Fisher Scientific.
Test compounds were dissolved in DMSO to make a stock solution of 10 mM and then diluted to 500 μM in buffer or 70% methanol. Human plasma was thawed at ambient temperature and aliquoted (994.0 μL) to a 1.5 mL Eppendorf tube in duplicates (vials A and B) for each compound. The plasma was incubated at 37° C. for 10 min in an incubator shaker at 150 RPM; the reaction was initiated by addition of the test compound (6.0 μL), followed by vortex mixing. The total reaction volume was 1000 μL, the final organic solvent concentrations were […] (when 70% methanol was used for dilution) and 0.03% DMSO, and the final concentration of the test compound was 3 μM. The spiked plasma samples were incubated at 37° C. for 4 h. The reactions were terminated at time point 0, 15, 30, 60, 120, 180, and 240 min by taking a 100 μL aliquot from the test incubation mixture and immediately quenching it by adding it into ice-cold acetonitrile or methanol (150 μL) containing 2 μM internal standard (ISTD), followed by vortex mixing. The ISTD was d5-7-ethoxy coumarin. The samples were then centrifuged at 15000 RPM for 25 min at 4° C., and the supernatant was transferred to an LC-MS vial for analysis by LC-MS/MS. Each time point was tested in duplicates followed by in-between blank washes to avoid carryover and to equilibrate the column.
Procaine (poor plasma stability) and procainamide (good plasma stability) were used as controls at the same concentration as that of the test compound. These controls were run in parallel to test the assay's competency. Matrix blank was prepared by adding acetonitrile or methanol containing ISTD to plasma samples without any of the test or control compounds. Also, an additional control sample was made to simply monitor compound degradation in PBS buffer.
Below is a summary of samples prepared for a given test compound in a typical plasma stability assay: • Test compound (TC): 994 μL human plasma+6.0 μL TC (Vial A) 994 μL human plasma+6.0 μL TC (Vial B) • Control: 596 μL human plasma+3.6 μL (procaine+procainamide) • Blank matrix: 500 μL PBS buffer+100 μL human plasma • Additional control: 142 μL PBS buffer+0.9 μL TC • Quenching mixture: 150 μL acetonitrile or methanol with ISTD (2 μM) • Final volume: 250 μL (100 μL from the incubation mixture+150 μL quenching mixture; final ISTD conc.: 1.2 μM)
LC-MS/MS analysis was performed using Agilent 1260 Infinity II HPLC, coupled with an Agilent G6460 triple quadrupole mass spectrometer (Agilent Technologies, USA). The data were acquired and processed using the Agilent 6460 Quantitative Analysis data processing software.
Reverse-phase HPLC separation for each compound was achieved on an Agilent InfinityLab Poroshell 120 C18 column (2.1×50 mm, 2.7 μm) with a mobile phase composed of methanol/water with 0.1% formic acid or acetonitrile/water with 0.1% formic acid at a flow rate of 0.5 mL/min. Each method was developed in the presence of the ISTD. The column temperature was maintained at 40° C. The detection was operated using the Agilent Jet-Stream electrospray positive ionization under the multiple reaction monitoring mode. The mass spec conditions were as follows: dwell time 100 ms; gas flow 10 L/min; nebulizer pressure 45 psi; delta EMV 200 V.
Plots of time (x-axis) vs. the natural logarithm of percent parent remaining (y-axis) were subsequently constructed to determine the slope. Finally, the plasma stability was evaluated using the following equation: […]

[3] = Nephelometry (aqueous solubility); assay type: physicochemical; details: DPBS with 1% DMSO, aqueous buffer, kinetic from dmso stock, DPBS pH 7.0-7.3, 1% DMSO, 25° C.
Text: Well A1 of the plate contained 100% DMSO.

[4] = male, Sprague Dawley, rat, in vivo
Description: Test System—Healthy male Sprague Dawley rats (8-12 weeks old) weighing between 200 to 250 g were procured from Global, India. […] Temperature and humidity were maintained at 22±3° C. and 30-70%, respectively and illumination was controlled to give a sequence of 12 h light and 12 h dark cycle. Temperature and humidity were recorded by auto-controlled data logger system. All the animals were provided with laboratory rodent diet (Envigo Research private Ltd, Hyderabad). Reverse osmosis water treated with ultraviolet light was provided ad libitum.
Design—Rats (n=3 per treatment group, serial sampling) were administered a solution of either normal saline vehicle or test compound in normal saline at 2 mg/kg (IV) or 10 mg/kg (IM) with a dosing volume of 5 mL/kg (IV) or 1 mL/kg (IM).
Sample Collection—Blood samples (approximately 60 μL) were collected under light isoflurane anesthesia (Surgivet®) from retro orbital plexus from a set of three rats at 0.08, 0.25, 0.5, 1, 2, 4, 6, 8 and 10 h (IV) or 0.25, 0.5, 1, 2, 4, 6, 8 and 10 h (IM). Immediately after blood collection, plasma was harvested by centrifugation 4000 rpm, 10 min at 40° C. and samples were stored at −70±10° C. until bioanalysis.
Data Analysis—Concentrations of the test compound and its parent compound, progesterone C20-oxime, in rat plasma were determined by fit-for-purpose LC-MS/MS method by Sai Life Sciences. […] Cmax represents the mean observed maximum concentration of analyte. Tmax represents the average time at observed Cmax. Areas under the curve (AUC0-last) were calculated via the linear trapezoidal rule using GraphPad Prism v9.

[5] = buffer, read-out: PBS t1/2 (converted)
[6] = buffer, d (days), read-out: PBS t1/2 (converted)

| Structure (SMILES) | half-life [1, 5] [h] | solubility at 90 min [3] [µM] | PBS t1/2 [1] [h] | Plasma % rmn at 2 h [2] [%] | other results |
| --- | --- | --- | --- | --- | --- |
| C/C(=N\OC(=O)N(C)CCNCCO)[C@H]1CC[C@H]2[C@@H]3CCC4=CC(=O)CC[C@]4(C)[C@H]3CC[C@]12C [32d, 2-((((((E)-1-((8S,9S,10R,13S,14S,17S)-10,13-dimethyl-3-oxo-2,3,6,7,8,9,10,11,12,13,14,15,16,17-tetradecahydro-1H-cyclopenta[a]phenanthren-17-yl)ethylidene)amino)oxy)carbonyl)(methyl)amino)-N-(2-hydroxyethyl)ethan-1-aminium chloride] | 30.4 ± 5 | > 500 | – | – | Plasma t1/2 [2]: 2.8 h |
| C/C(=N\OC(=O)NC[C@@H]1CCCN1)[C@H]1CCC2[C@@H]3CCC4=CC(=O)CC[C@]4(C)[C@H]3CC[C@@]21C (stereo partly drawn) [32g, (8S,9S,10R,13S,17S)-10,13-dimethyl-17-((E)-1-((((((S)-pyrrolidin-2-yl)methyl)carbamoyl)oxy)imino)ethyl)-1,2,6,7,8,9,10,11,12,13,14,15,16,17-tetradecahydro-3H-cyclopenta[a]phenanthren-3-one hydrochloride] | – | > 750 | – | – | half-life at 1 mg/mL [1, 6]: 396 h; half-life at 3 µM ([2]; read-out: Plasma t1/2 (converted)): 9.6 h |
| CNCCN(C(=O)O/N=C(\C)[C@H]1CC[C@H]2[C@@H]3CCC4=CC(=O)CC[C@]4(C)[C@H]3CC[C@]12C)C(C)C.O=C(O)C(F)(F)F [53a, (E)-9-((8S,9S,10R,13S,14S,17S)-10,13-dimethyl-3-oxo-2,3,6,7,8,9,10,11,12,13,14,15,16,17-tetradecahydro-1H-cyclopenta[a]phenanthren-17-yl)-5-isopropyl-7-oxa-2,5,8-triazadec-8-en-6-one 2,2,2-trifluoroacetate] | – | > 750 | 19.72 ± 0.38 | 41 | – |
| CNCCN(C(=O)O/N=C(\C)[C@H]1CC[C@H]2[C@@H]3CCC4=CC(=O)CC[C@]4(C)[C@H]3CC[C@]12C)C1CC1.O=C(O)C(F)(F)F [53b, (E)-5-cyclopropyl-9-((8S,9S,10R,13S,14S,17S)-10,13-dimethyl-3-oxo-2,3,6,7,8,9,10,11,12,13,14,15,16,17-tetradecahydro-1H-cyclopenta[a]phenanthren-17-yl)-7-oxa-2,5,8-triazadec-8-en-6-one 2,2,2-trifluoroacetate] | – | > 750 | 28.16 ± 0.04 | 45 | – |
| CNCCN(C(=O)O/N=C(\C)[C@H]1CC[C@H]2[C@@H]3CCC4=CC(=O)CC[C@]4(C)[C@H]3CC[C@]12C)C1CCCC1.O=C(O)C(F)(F)F [53d, (E)-5-cyclopentyl-9-((8S,9S,10R,13S,14S,17S)-10,13-dimethyl-3-oxo-2,3,6,7,8,9,10,11,12,13,14,15,16,17-tetradecahydro-1H-cyclopenta[a]phenanthren-17-yl)-7-oxa-2,5,8-triazadec-8-en-6-one 2,2,2-trifluoroacetate] | – | > 750 | 10.70 ± 0.15 | 65 | – |
| CNCCN(CC(C)C)C(=O)O/N=C(\C)[C@H]1CC[C@H]2[C@@H]3CCC4=CC(=O)CC[C@]4(C)[C@H]3CC[C@]12C.O=C(O)C(F)(F)F [53e, (E)-9-((8S,9S,10R,13S,14S,17S)-10,13-dimethyl-3-oxo-2,3,6,7,8,9,10,11,12,13,14,15,16,17-tetradecahydro-1H-cyclopenta[a]phenanthren-17-yl)-5-isobutyl-7-oxa-2,5,8-triazadec-8-en-6-one 2,2,2-trifluoroacetate] | > 24 | > 750 | – | 83 | – |
| CCNCCN(CC)C(=O)O/N=C(\C)[C@H]1CC[C@H]2[C@@H]3CCC4=CC(=O)CC[C@]4(C)[C@H]3CC[C@]12C.Cl [54a, (E)-2-((8S,9S,10R,13S,14S,17S)-10,13-dimethyl-3-oxo-2,3,6,7,8,9,10,11,12,13,14,15,16,17-tetradecahydro-1H-cyclopenta[a]phenanthren-17-yl)-6-ethyl-4-oxa-3,6,9-triazaundec-2-en-5-one hydrochloride] | > 24 | > 750 | – | 71 | – |
| C/C(=N\OC(=O)N(CCNC(C)C)C(C)C)[C@H]1CC[C@H]2[C@@H]3CCC4=CC(=O)CC[C@]4(C)[C@H]3CC[C@]12C.Cl [54b, (E)-2-((8S,9S,10R,13S,14S,17S)-10,13-dimethyl-3-oxo-2,3,6,7,8,9,10,11,12,13,14,15,16,17-tetradecahydro-1H-cyclopenta[a]phenanthren-17-yl)-6-isopropyl-10-methyl-4-oxa-3,6,9-triazaundec-2-en-5-one hydrochloride] | > 24 | > 500 | – | 84 | – |
| C/C(=N\OC(=O)N(CCO)CCNCCO)[C@H]1CC[C@H]2[C@@H]3CCC4=CC(=O)CC[C@]4(C)[C@H]3CC[C@]12C.Cl [54d, (E)-2-((8S,9S,10R,13S,14S,17S)-10,13-dimethyl-3-oxo-2,3,6,7,8,9,10,11,12,13,14,15,16,17-tetradecahydro-1H-cyclopenta[a]phenanthren-17-yl)-11-hydroxy-6-(2-hydroxyethyl)-4-oxa-3,6,9-triazaundec-2-en-5-one hydrochloride] | – | > 750 | 28.79 ± 3.16 | 32 | – |
| C/C(=N/OCOP(=O)([O-])[O-])[C@H]1CC[C@H]2[C@@H]3CCC4=CC(=O)CC[C@]4(C)[C@H]3CC[C@]12C.[Na+].[Na+] [EIDD-1723] | – | – | – | – | increase in the dose-corrected exposure to parent progesterone C20-oxime, IM compared to the IV route [4]: 3 fold; Parent AUClast ([4]; im, 10 mg/kg): 753 ± 29 ng·h/mL; Parent AUClast ([4]; iv, 2 mg/kg): 48 ± 6 ng·h/mL; Parent Cmax ([4]; iv, 2 mg/kg): 219 ng/mL |
| C/C(=N\OC(=O)NCCN(C)C)[C@H]1CC[C@H]2[C@@H]3CCC4=CC(=O)CC[C@]4(C)[C@H]3CC[C@]12C.Cl [compound 34, (E)-9-((8S,9S,10R,13S,14S,17S)-10,13-dimethyl-3-oxo-2,3,6,7,8,9,10,11,12,13,14,15,16,17-tetradecahydro-1H-cyclopenta[a]phenanthren-17-yl)-2-methyl-7-oxa-2,5,8-triazadec-8-en-6-one hydrochloride] | – | > 750 | – | – | half-life [1, 6]: 787 h; Plasma t1/2 [2]: >3.5 h |
